Patent publication US10478157B2, “Methods for drug delivery” (Presage Biosciences, Inc., priority 2011, dated 2019)

Test system: mouse xenograft of Human Lymphoma Ramos cell line
Test: Vincristine delivered through a microdialysis probe into a solid tumor; Cleaved Caspase 3 / DAPI staining
Format: in vivo
Settings: intratumoral delivery by microdialysis probe; Cleaved Caspase 3 Fluorophore 555 for cell death, DAPI nuclear stain; FIG. 13
Description: FIGS. 13a and 13b show drug delivered through microdialysis probe induces spatially restricted drug specific tumor cell death embodying principles of the present invention.
Little or no evidence of tissue disruption due to insertion was observed. The membrane maintained its integrity through insertion and tissue processing, including microtome sectioning. The solid tumor is a mouse xenograft of Human Lymphoma Ramos cell line. The biomarkers are DAPI for nuclear stain and Cleaved Caspase 3 Fluorophore 555 for cell death in response to Vincristine as delivery agent.

CC[C@]1(O)C[C@H]2CN(CCc3c([nH]c4ccccc34)[C@@](C(=O)OC)(c3cc4c(cc3OC)N(C=O)[C@H]3[C@@](O)(C(=O)OC)[C@H](OC(C)=O)[C@]5(CC)C=CCN6CC[C@]43[C@@H]65)C2)C1 [Vincristine]
triggered cellular response (Cleaved Caspase 3 biomarker for cell death) around the delivery axis: clear manifestation of triggered cellular response
